Laboratory results as given in the supplement of paper PMC10307832.

Experiments:
Experiment in all cases: relative viability (nuclei count vs DMSO), 5 days (fraction); higher = more cells survive
Everolimus + Palbociclib = compound: CO[C@H]1C[C@@H]2CC[C@@H](C)[C@@](O)(O2)C(=O)C(=O)N2CCCC[C@H]2C(=O)O[C@H]([C@H](C)C[C@@H]2CC[C@@H](OCCO)[C@H](OC)C2)CC(=O)[C@H](C)/C=C(\C)[C@@H](O)[C@@H](OC)C(=O)[C@H](C)C[C@H](C)/C=C/C=C/C=C/1C [Everolimus] + CC(=O)c1c(C)c2cnc(Nc3ccc(N4CCNCC4)cn3)nc2n(C2CCCC2)c1=O [Palbociclib] (partner 0.5 µM)
Method in brief: (§1)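 Each reported value is a median over duplicate plates. It expresses relative viability: treated-well nuclei count divided by vehicle-well nuclei count. Lung cancer cell lines in 1536-well plates were dosed by pin tool a day after seeding, alone with one drug or with a fixed anchor-drug dose plus five library-drug doses (not always all listed) in √10 steps, and nuclei were counted after 5 days.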

Everolimus + Pictilisib = compound: CO[C@H]1C[C@@H]2CC[C@@H](C)[C@@](O)(O2)C(=O)C(=O)N2CCCC[C@H]2C(=O)O[C@H]([C@H](C)C[C@@H]2CC[C@@H](OCCO)[C@H](OC)C2)CC(=O)[C@H](C)/C=C(\C)[C@@H](O)[C@@H](OC)C(=O)[C@H](C)C[C@H](C)/C=C/C=C/C=C/1C [Everolimus] + CS(=O)(=O)N1CCN(Cc2cc3nc(-c4cccc5[nH]ncc45)nc(N4CCOCC4)c3s2)CC1 [Pictilisib] (partner 1 µM)
Method in brief: as §1

Everolimus + Luminespib = compound: CO[C@H]1C[C@@H]2CC[C@@H](C)[C@@](O)(O2)C(=O)C(=O)N2CCCC[C@H]2C(=O)O[C@H]([C@H](C)C[C@@H]2CC[C@@H](OCCO)[C@H](OC)C2)CC(=O)[C@H](C)/C=C(\C)[C@@H](O)[C@@H](OC)C(=O)[C@H](C)C[C@H](C)/C=C/C=C/C=C/1C [Everolimus] + CCNC(=O)c1noc(-c2cc(C(C)C)c(O)cc2O)c1-c1ccc(CN2CCOCC2)cc1 [Luminespib] (partner 0.01 µM)
Method in brief: as §1

Everolimus + OSI-027 = compound: CO[C@H]1C[C@@H]2CC[C@@H](C)[C@@](O)(O2)C(=O)C(=O)N2CCCC[C@H]2C(=O)O[C@H]([C@H](C)C[C@@H]2CC[C@@H](OCCO)[C@H](OC)C2)CC(=O)[C@H](C)/C=C(\C)[C@@H](O)[C@@H](OC)C(=O)[C@H](C)C[C@H](C)/C=C/C=C/C=C/1C [Everolimus] + COc1cccc2cc(-c3nc([C@H]4CC[C@H](C(=O)O)CC4)n4ncnc(N)c34)[nH]c12 [OSI-027] (partner 0.5 µM)
Method in brief: as §1

Cell Line | relative viability (Everolimus + Palbociclib; first compound 0.01 µM) | relative viability (Everolimus + Palbociclib; first compound 0.03162 µM) | relative viability (Everolimus + Palbociclib; first compound 0.1 µM) | relative viability (Everolimus + Palbociclib; first compound 0.3162 µM) | relative viability (Everolimus + Palbociclib; first compound 1 µM) | relative viability (Everolimus + Pictilisib; first compound 0.01 µM) | relative viability (Everolimus + Pictilisib; first compound 0.03162 µM) | relative viability (Everolimus + Pictilisib; first compound 0.1 µM) | relative viability (Everolimus + Pictilisib; first compound 0.3162 µM) | relative viability (Everolimus + Pictilisib; first compound 1 µM) | relative viability (Everolimus + Luminespib; first compound 0.01 µM) | relative viability (Everolimus + Luminespib; first compound 0.03162 µM) | relative viability (Everolimus + Luminespib; first compound 0.1 µM) | relative viability (Everolimus + Luminespib; first compound 0.3162 µM) | relative viability (Everolimus + Luminespib; first compound 1 µM) | relative viability (Everolimus + OSI-027; first compound 0.01 µM) | relative viability (Everolimus + OSI-027; first compound 0.03162 µM) | relative viability (Everolimus + OSI-027; first compound 0.1 µM) | relative viability (Everolimus + OSI-027; first compound 0.3162 µM) | relative viability (Everolimus + OSI-027; first compound 1 µM)
NCI-H322M | 0.473 | 0.454 | 0.409 | 0.47 | 0.424 | 0.445 | 0.445 | 0.352 | 0.429 | 0.397 | 0.579 | 0.568 | 0.387 | 0.554 | 0.543 | 0.425 | 0.501 | 0.473 | 0.433 | 0.495
EKVX | – | 0.217 | 0.188 | 0.2 | 0.237 | 0.251 | 0.24 | 0.234 | 0.245 | 0.22 | 0.623 | 0.475 | 0.336 | 0.447 | 0.425 | 0.518 | 0.427 | 0.289 | 0.358 | 0.43
NCI-H1734 | 0.285 | 0.241 | 0.288 | 0.251 | 0.258 | 0.285 | 0.341 | 0.259 | 0.316 | 0.336 | 0.176 | 0.211 | 0.185 | 0.184 | 0.208 | 0.408 | 0.411 | 0.365 | 0.417 | 0.423
ABC-1 | 0.468 | – | 0.43 | – | 0.598 | 0.389 | 0.371 | 0.413 | 0.542 | 0.557 | – | 0.342 | 0.316 | 0.371 | 0.355 | 0.342 | 0.281 | 0.279 | 0.357 | 0.316
NCI-H520 | 0.155 | 0.182 | 0.194 | 0.14 | 0.194 | 0.186 | 0.197 | 0.204 | 0.185 | 0.165 | 0.23 | 0.237 | 0.215 | 0.235 | 0.206 | 0.21 | 0.179 | 0.218 | 0.185 | 0.193
EPLC-272H | 0.307 | 0.323 | 0.284 | 0.286 | 0.259 | 0.274 | 0.295 | 0.188 | 0.211 | 0.262 | 0.162 | 0.176 | 0.188 | 0.203 | 0.263 | 0.206 | 0.204 | 0.203 | 0.24 | 0.253
UMC-11 | 0.261 | 0.262 | 0.282 | 0.3 | 0.272 | 0.292 | 0.273 | 0.28 | 0.299 | 0.324 | 0.328 | 0.348 | 0.385 | 0.343 | 0.366 | 0.272 | 0.288 | 0.257 | 0.297 | 0.277
NCI-H1792 | 0.776 | 0.518 | 0.448 | 0.464 | 0.376 | 0.189 | 0.14 | 0.121 | 0.148 | 0.105 | 0.295 | 0.24 | 0.21 | 0.229 | 0.217 | 0.646 | 0.489 | 0.427 | 0.421 | 0.362
